Legend:
dhBMECs in microvessels = test: Analysis of cell behavior in tissue-engineered microvessels; assay type: cell-based, human
Text: To monitor cell dynamics, cell loss and proliferation events were counted manually. Rates of cell loss (% h^−1), division (% h^−1), turnover (% h^−1), and cell loss at the site of a focal leak (%) were quantified from phase contrast imaging sequences, as reported previously. Briefly, the total number of endothelial cells was counted manually for each microvessel plane, utilizing a region approximately 100 μm wide corresponding to about a fifth of the channel circumference. Cell loss was identified by observing the removal of a cell from the microvessel. Cell loss from the monolayer occurred through two processes: (1) apoptotic loss, in which a cell constricts, releases its contents into the vessel lumen, which is then removed from the monolayer over a period of 20-60 minutes, and (2) non-apoptotic loss, in which a cell swells and disappears from the monolayer over a period of 2-6 minutes. Cell division was identified by observing cell compression, alignment of chromosomes, and the formation of daughter cells. The rate of turnover (% h^−1) is the difference between the rate of cell division and the rate of cell loss. A cell loss event was identified to be at the site of a focal leak if it occurred within <50 μm and <4 minutes of the occurrence of a focal leak. For a limited set of experiments, the WTC iPSC line [Kreitzer, F. R., et al., Am J Stem Cells, 2013. 2(2): p. 119-31] with GFP-tagged zona occludens-1 (Allen Cell Institute) was used to facilitate live-cell monitoring of tight junction organization.
Confocal z-stacks (0.4 μm in thickness) at 40× magnification were obtained on a swept field confocal microscope system (Prairie Technologies). Illumination was provided by an MLC 400 monolithic laser combiner (Keysight Technologies). Complete reconstruction of the microvessel lumen required approximately four hundred slices. Confocal imaging was conducted before, during, and after exposure to 50 μM·minute melittin treatment.

mouse brain = test: Safety of BBBO in mice (neurological deficits, MRI, histology); assay type: in vivo
Method: 273-285] in ImageJ. […] Subsequently, animals were sacrificed for further histological assessment.
In brief, each post-contrast image was first fitted into two Gaussian distributions, and the cutoff of signal intensity was determined. Data analysis and calculation of area fraction was performed using custom-written MATLAB scripts. 24 hours and 7 days after melittin treatment, animals were trans-cardially perfused with 5% sucrose in deionized water and then 4% paraformaldehyde in phosphate buffered saline. The brains were cryopreserved in 30% sucrose and cryo-sectioned in 30 μm slices. Primary antibodies used in the study are described in Table 2. Goat anti-rabbit Alexa Fluor-488 or Alexa Fluor-594 (1:250, Life Technologies) were used as secondary antibodies for fluorescence assessment using an inverted microscope (Zeiss, Axio Observer Z1). For demyelination assessment, eriochrome cyanine R staining was performed as described previously [Golubczyk, D., et al., Mol Neurobiol, 2019. 56(8): p. 5740-5748] with assessment using bright-field microscopy. Quantitation of immunohistochemistry (based on relative fluorescence intensity) and MRI analysis (based on intensity) were performed using Image J. For each mouse, three ROIs of the ipsilateral and contralateral BBBO regions were drawn, respectively.

With CC[C@H](C)[C@H](NC(=O)CN)C(=O)NCC(=O)N[C@@H](C)C(=O)N[C@H](C(=O)N[C@@H](CC(C)C)C(=O)N[C@@H](CCCCN)C(=O)N[C@H](C(=O)N[C@@H](CC(C)C)C(=O)N[C@H](C(=O)N[C@H](C(=O)NCC(=O)N[C@@H](CC(C)C)C(=O)N1CCC[C@H]1C(=O)N[C@@H](C)C(=O)N[C@@H](CC(C)C)C(=O)N[C@H](C(=O)N[C@@H](CO)C(=O)N[C@@H](Cc1c[nH]c2ccccc12)C(=O)N[C@H](C(=O)N[C@@H](CCCCN)C(=O)N[C@@H](CCCNC(=N)N)C(=O)N[C@@H](CCCCN)C(=O)N[C@@H](CCCNC(=N)N)C(=O)N[C@@H](CCC(N)=O)C(=O)N[C@@H](CCC(N)=O)C(N)=O)[C@@H](C)CC)[C@@H](C)CC)[C@@H](C)O)[C@@H](C)O)C(C)C)C(C)C [melittin] the cell division rate (dhBMECs in microvessels; across melittin doses 3-100 μM·minute) was “about 1 % h^−1”, the “cell loss rate following melittin exposure” value (dhBMECs in microvessels; doses 3-100 μM·minute) was “dose-dependent” and the “turnover of dhBMECs (division rate minus loss rate)” value (dhBMECs in microvessels; doses 3-100 μM·minute) was “negative”. For the same compound, the “cell response, GFP-tagged ZO1 dhBMEC microvessels” value (dhBMECs in microvessels; high melittin doses (100 μM·min)) was “cells contracted”, the “long-term survival (30 days)” value (mouse brain; 3 μM·minute) was “reached that endpoint without complications” and the mortality (mouse brain; 3 μM·minute, 11 mice) was “One mouse in this group died within 12 hours”. The “neurological deficits (paralysis, seizure, or rotation)” value (mouse brain; 3 μM·minute, 11 mice) was “all animals except one woke up from anesthesia without apparent neurological deficits”, the “GFAP, Iba1, NeuN, and caspase-3 intensities between hemispheres” value (mouse brain; 3 μM·minute, 24 hours) was “not statistically different” and the “MRI (T2, SWI)” value (mouse brain; 3 μM·minute, 24 hours) was “no evidence of edema or inflammation on T2 scans or micro-hemorrhages on susceptibility weighted imaging (SWI) scans”. The “GFAP and Iba1 intensity, ipsilateral vs contralateral” value (mouse brain; 3 μM·minute, 7 days) was “no statistically significant differences”, the MRI (mouse brain; 3 μM·minute, 7 days) was “no abnormalities were detected” and the “NeuN and caspase-3 intensity in the ipsilateral hemisphere” value (mouse brain; 3 μM·minute, 7 days) was “no statistically significant change”. The “eriochrome cyanine staining (myelin)” value (mouse brain; 3 μM·minute, 7 days, hippocampus) was “normal myelin” and the behavior after dosing (mouse brain; 5 μM·minute) was “mice displayed rotational behavior indicating neurological damage”.
